In patent US20240092784A1, “CONDENSED HETEROCYCLIC COMPOUND” (NISSAN CHEMICAL CORPORATION, priority 2020, published 2024):
Where a name gives a salt, the structure may show the parent alone.

target: human SPR (Homo sapiens (Human), UniProt P35270); experiment: Evaluation Example 2: Measurement of human SPR inhibitory activity (seven concentrations, sepiapterin absorbance at 420 nm); assay type: biochemical; conditions: Evaluation Example 2, seven concentrations 0.14 nM to 100 nM, 240 minutes at room temperature, read-out: IC50
Sequence (P35270 whole entry): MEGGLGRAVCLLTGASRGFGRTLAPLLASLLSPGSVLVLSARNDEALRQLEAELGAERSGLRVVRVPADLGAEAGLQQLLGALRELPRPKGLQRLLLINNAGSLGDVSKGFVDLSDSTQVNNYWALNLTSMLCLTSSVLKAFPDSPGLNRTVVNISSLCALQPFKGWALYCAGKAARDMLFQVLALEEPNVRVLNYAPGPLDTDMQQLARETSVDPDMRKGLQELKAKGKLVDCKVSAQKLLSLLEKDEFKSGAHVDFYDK
Method in brief: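 Reactions ran 240 min at room temperature in 100 mM Tris-HCl pH 7.5 with 0.01% BSA. They contained tag-cleaved, E. coli-expressed full-length human SPR (diluted to 150 ng/mL), seven compound concentrations from 0.14 to 100 nM, and sepiapterin/NADPH added as a 120 μM/160 μM solution. Inhibition was calculated from sepiapterin absorbance at 420 nm.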

CCN(CC)C(=O)/C=C/c1cnn2c(O)c(C(=O)NC3CC3)c(=O)n(CC(C)C)c12 [compound 504, (E)-N-Cyclopropyl-3-(3-(diethylamino)-3-oxoprop-1-en-1-yl)-7-hydroxy-4-isobutyl-5-oxo-4,5-dihydropyrazolo[1,5-a]pyrimidine-6-carboxamide] and CCN(C)C(=O)/C=C/c1cnn2c(O)c(C(=O)NC3CC3)c(=O)n(CC(C)C)c12 [compound 522, (E)-N-Cyclopropyl-3-(3-(ethyl(methyl)amino)-3-oxoprop-1-en-1-yl)-7-hydroxy-4-isobutyl-5-oxo-4,5-dihydropyrazolo[1,5-a]pyrimidine-6-carboxamide] are within 1.5-fold of each other in IC50: 0.84 nM for the first, 0.78 nM for the second.

Compared with CC(C)Cn1c(=O)c(C(=O)NC2CC2)c(O)n2ncc(/C=C/C(=O)N3CCN(CC(F)(F)C(F)(F)F)CC3)c12 [compound 505, (E)-N-Cyclopropyl-7-hydroxy-4-isobutyl-5-oxo-3-(3-oxo-3-(4-(2,2,3,3,3-pentafluoropropyl)piperazin-1-yl)prop-1-en-1-yl)-4,5-dihydropyrazolo[1,5-a]pyrimidine-6-carboxamide], CC(C)Cn1c(=O)c(C(=O)NC2CC2)c(O)n2ncc(/C=C/C(=O)N3CCN(CC(F)(F)F)CC3)c12 [compound 506, (E)-N-Cyclopropyl-7-hydroxy-4-isobutyl-5-oxo-3-(3-oxo-3-(4-(2,2,2-trifluoroethyl)piperazin-1-yl)prop-1-en-1-yl)-4,5-dihydropyrazolo[1,5-a]pyrimidine-6-carboxamide] is 2.4-fold lower in IC50: 1.89 nM for the first, 0.8 nM for the second.

First: CC(C)Cn1c(=O)c(C(=O)NC2CC2)c(O)n2ncc(/C=C/C(=O)NCC(C)(C)O)c12 [compound 507, (E)-N-Cyclopropyl-7-hydroxy-3-(3-((2-hydroxy-2-methylpropyl)amino)-3-oxoprop-1-en-1-yl)-4-isobutyl-5-oxo-4,5-dihydropyrazolo[1,5-a]pyrimidine-6-carboxamide]
Second: CC(C)Cn1c(=O)c(C(=O)NC2CC2)c(O)n2ncc(/C=C/C(=O)N(C)CC(C)(C)O)c12 [compound 518, (E)-N-Cyclopropyl-7-hydroxy-3-(3-((2-hydroxy-2-methylpropyl)(methyl)amino)-3-oxoprop-1-en-1-yl)-4-isobutyl-5-oxo-4,5-dihydropyrazolo[1,5-a]pyrimidine-6-carboxamide]
The IC50 of the first is 1.7-fold higher: 1.13 nM for the first, 0.66 nM for the second. The second is the more potent here.

CC(C)Cn1c(=O)c(C(=O)NC2CC2)c(O)n2ncc(/C=C/C(=O)N3CCNCC3)c12 [compound 508, (E)-N-Cyclopropyl-7-hydroxy-4-isobutyl-5-oxo-3-(3-oxo-3-(piperazin-1-yl)prop-1-en-1-yl)-4,5-dihydropyrazolo[1,5-a]pyrimidine-6-carboxamide hydrochloride] and CC(C)Cn1c(=O)c(C(=O)NC2CC2)c(O)n2ncc(/C=C/C(=O)N3CCS(=O)(=O)CC3)c12 [compound 514, (E)-N-Cyclopropyl-3-(3-(1,1-dioxidothiomorpholino)-3-oxoprop-1-en-1-yl)-7-hydroxy-4-isobutyl-5-oxo-4,5-dihydropyrazolo[1,5-a]pyrimidine-6-carboxamide] are within 1.5-fold of each other in IC50: 0.77 nM for the first, 0.58 nM for the second.

CC(C)Cn1c(=O)c(C(=O)NC2CC2)c(O)n2ncc(/C=C/C(=O)N(C)CC(F)(F)F)c12 [compound 509, (E)-N-Cyclopropyl-7-hydroxy-4-isobutyl-3-(3-(methyl(2,2,2-trifluoroethyl)amino)-3-oxoprop-1-en-1-yl)-5-oxo-4,5-dihydropyrazolo[1,5-a]pyrimidine-6-carboxamide] and COCCN(C)C(=O)/C=C/c1cnn2c(O)c(C(=O)NC3CC3)c(=O)n(CC(C)C)c12 [compound 519, (E)-N-Cyclopropyl-7-hydroxy-4-isobutyl-3-(3-((2-methoxyethyl)(methyl)amino)-3-oxoprop-1-en-1-yl)-5-oxo-4,5-dihydropyrazolo[1,5-a]pyrimidine-6-carboxamide] are within 1.5-fold of each other in IC50: 0.92 nM for the first, 0.68 nM for the second.

CC(C)Cn1c(=O)c(C(=O)NC2CC2)c(O)n2ncc(/C=C/C(=O)N3CCC[C@H]3CO)c12 [compound 510, (S,E)-N-Cyclopropyl-7-hydroxy-3-(3-(2-(hydroxymethyl)pyrrolidin-1-yl)-3-oxoprop-1-en-1-yl)-4-isobutyl-5-oxo-4,5-dihydropyrazolo[1,5-a]pyrimidine-6-carboxamide] and CC(C)Cn1c(=O)c(C(=O)NC2CC2)c(O)n2ncc(/C=C/C(=O)N3CCOC[C@@H]3CO)c12 [compound 525, (S,E)-N-Cyclopropyl-7-hydroxy-3-(3-(3-(hydroxymethyl)morpholino)-3-oxoprop-1-en-1-yl)-4-isobutyl-5-oxo-4,5-dihydropyrazolo[1,5-a]pyrimidine-6-carboxamide] are within 1.5-fold of each other in IC50: 0.85 nM for the first, 0.65 nM for the second.

Compared with CC(C)Cn1c(=O)c(C(=O)NC2CC2)c(O)n2ncc(/C=C/C(=O)N3CC4C(C3)C4(F)F)c12 (centres unmarked) [compound 511, (E)-N-Cyclopropyl-3-(3-(6,6-difluoro-3-azabicyclo[3.1.0]hexan-3-yl)-3-oxoprop-1-en-1-yl)-7-hydroxy-4-isobutyl-5-oxo-4,5-dihydropyrazolo[1,5-a]pyrimidine-6-carboxamide], CC(C)Cn1c(=O)c(C(=O)NC2CC2)c(O)n2ncc(/C=C/C(=O)N3CCC(=O)C3)c12 [compound 516, (E)-N-Cyclopropyl-7-hydroxy-4-isobutyl-5-oxo-3-(3-oxo-3-(3-oxopyrrolidin-1-yl)prop-1-en-1-yl)-4,5-dihydropyrazolo[1,5-a]pyrimidine-6-carboxamide] is 1.8-fold lower in IC50: 1.07 nM for the first, 0.61 nM for the second.

CC(C)Cn1c(=O)c(C(=O)NC2CC2)c(O)n2ncc(/C=C/C(=O)N3CC[C@H](C(N)=O)C3)c12 [compound 512, (S,E)-3-(3-(3-Carbamoylpyrrolidin-1-yl)-3-oxoprop-1-en-1-yl)-N-cyclopropyl-7-hydroxy-4-isobutyl-5-oxo-4,5-dihydropyrazolo[1,5-a]pyrimidine-6-carboxamide] and CC(C)Cn1c(=O)c(C(=O)NC2CC2)c(O)n2ncc(/C=C/C(=O)N3CC[C@@H](C(N)=O)C3)c12 [compound 513, (R,E)-3-(3-(3-Carbamoylpyrrolidin-1-yl)-3-oxoprop-1-en-1-yl)-N-cyclopropyl-7-hydroxy-4-isobutyl-5-oxo-4,5-dihydropyrazolo[1,5-a]pyrimidine-6-carboxamide] are within 1.5-fold of each other in IC50: 0.69 nM for the first, 0.75 nM for the second.

CC(C)Cn1c(=O)c(C(=O)NC2CC2)c(O)n2ncc(/C=C/C(=O)N(C3CC3)C3CC3)c12 [compound 515, (E)-N-Cyclopropyl-3-(3-(dicyclopropylamino)-3-oxoprop-1-en-1-yl)-7-hydroxy-4-isobutyl-5-oxo-4,5-dihydropyrazolo[1,5-a]pyrimidine-6-carboxamide] and CC(C)Cn1c(=O)c(C(=O)NC2CC2)c(O)n2ncc(/C=C/C(=O)N(C)C3CCOCC3)c12 [compound 523, (E)-N-Cyclopropyl-7-hydroxy-4-isobutyl-3-(3-(methyl(tetrahydro-2H-pyran-4-yl)amino)-3-oxoprop-1-en-1-yl)-5-oxo-4,5-dihydropyrazolo[1,5-a]pyrimidine-6-carboxamide] are within 1.5-fold of each other in IC50: 0.84 nM for the first, 0.71 nM for the second.

COCCNC(=O)/C=C/c1cnn2c(O)c(C(=O)NC3CC3)c(=O)n(CC(C)C)c12 [compound 517, (E)-N-Cyclopropyl-7-hydroxy-4-isobutyl-3-(3-((2-methoxyethyl)amino)-3-oxoprop-1-en-1-yl)-5-oxo-4,5-dihydropyrazolo[1,5-a]pyrimidine-6-carboxamide] and CC(C)Cn1c(=O)c(C(=O)NC2CC2)c(O)n2ncc(/C=C/C(=O)N(C)CCC#N)c12 [compound 524, (E)-3-(3-((2-Cyanoethyl)(methyl)amino)-3-oxoprop-1-en-1-yl)-N-cyclopropyl-7-hydroxy-4-isobutyl-5-oxo-4,5-dihydropyrazolo[1,5-a]pyrimidine-6-carboxamide] are within 1.5-fold of each other in IC50: 0.57 nM for the first, 0.72 nM for the second.

CC(C)Cn1c(=O)c(C(=O)NC2CC2)c(O)n2ncc(/C=C/C(=O)N3CCC[C@@H](CO)C3)c12 [compound 520, (R,E)-N-Cyclopropyl-7-hydroxy-3-(3-(3-(hydroxymethyl)piperidin-1-yl)-3-oxoprop-1-en-1-yl)-4-isobutyl-5-oxo-4,5-dihydropyrazolo[1,5-a]pyrimidine-6-carboxamide] and CC(C)Cn1c(=O)c(C(=O)NC2CC2)c(O)n2ncc(/C=C/C(=O)N3CCC[C@H](CO)C3)c12 [compound 528, (S,E)-N-Cyclopropyl-7-hydroxy-3-(3-(3-(hydroxymethyl)piperidin-1-yl)-3-oxoprop-1-en-1-yl)-4-isobutyl-5-oxo-4,5-dihydropyrazolo[1,5-a]pyrimidine-6-carboxamide] are within 1.5-fold of each other in IC50: 0.77 nM for the first, 0.85 nM for the second.

Compared with CC(C)Cn1c(=O)c(C(=O)NC2CC2)c(O)n2ncc(/C=C/C(=O)N3CCO[C@H](CO)C3)c12 [compound 521, (S,E)-N-Cyclopropyl-7-hydroxy-3-(3-(2-(hydroxymethyl)morpholino)-3-oxoprop-1-en-1-yl)-4-isobutyl-5-oxo-4,5-dihydropyrazolo[1,5-a]pyrimidine-6-carboxamide], CC(C)Cn1c(=O)c(C(=O)NC2CC2)c(O)n2ncc(/C=C/C(=O)N3CCO[C@@H](C(F)(F)F)C3)c12 [compound 529, (R,E)-N-Cyclopropyl-7-hydroxy-4-isobutyl-5-oxo-3-(3-oxo-3-(2-(trifluoromethyl)morpholino)prop-1-en-1-yl)-4,5-dihydropyrazolo[1,5-a]pyrimidine-6-carboxamide] is 1.7-fold higher in IC50: 0.59 nM for the first, 1.03 nM for the second.

CC(C)Cn1c(=O)c(C(=O)NC2CC2)c(O)n2ncc(/C=C/C(=O)N3CCOC[C@H]3CO)c12 [compound 526, (R,E)-N-Cyclopropyl-7-hydroxy-3-(3-(3-(hydroxymethyl)morpholino)-3-oxoprop-1-en-1-yl)-4-isobutyl-5-oxo-4,5-dihydropyrazolo[1,5-a]pyrimidine-6-carboxamide] and CC(C)Cn1c(=O)c(C(=O)NC2CCC2)c(O)n2ncc(/C=C/C(=O)N3CCOCC3)c12 [compound 527, (E)-N-Cyclobutyl-7-hydroxy-4-isobutyl-3-(3-morpholino-3-oxoprop-1-en-1-yl)-5-oxo-4,5-dihydropyrazolo[1,5-a]pyrimidine-6-carboxamide] are within 1.5-fold of each other in IC50: 0.67 nM for the first, 0.74 nM for the second.
